Data taken from patent US20250017849A1 (ETH ZURICH, priority 2021, published 2025).

Columns and labels:
[1] = dog, in vivo
Protocol: As a control formulation, enteric-coated (Eudragit® L100-55, Essen, Germany) capsules containing commercial Minirin® drug tablets (6 pieces containing 1.2 mg desmopressin in total) was given orally to the dog.
A 3D printed clamp containing a cavity for the suction patch containing 1.2 mg desmopressin, 1.2 mg PVA, and 5.7 mg NaTaC was attached to the dog's mucosa, ensuring similar conditions (i.e., enclosed environment, close contact to the mucosa, same sample preparation and loading) as the applied suction patch, but […] and without negative pressure and the resulting tissue deformation.
The dogs were anesthetized for the duration of the experiment (3 h). […] Blood samples were collected in K2EDTA tubes immediately followed by centrifugation at 1700 G for 10 min at 4° C. Subsequently, the plasma was stored in clear polypropylene vials at −80° C. until further analysis. The drug plasma concentration was evaluated using LC-MS/MS method. Briefly, an aliquot of 900 μL dog plasma sample was mixed with 10 μL internal standard (Goserelin; 25 ng/mL) and 300 μL 4% H3PO4 acidified water into 1.5 mL Eppendorf tubes. The plasma sample was then extracted using Oasis™ WAX solid-phase extraction cartridges. […] Samples were analyzed in TOF-MRM mode with a quantification limit of […]. […]

[2] = oral formulation, even in the presence of permeation enhancers; cited from earlier work
[3] = pharmacokinetic study of semaglutide mucosal suction patch in beagle dogs; type: in vivo; details: patch with 9 mg semaglutide, 1.2 mg PVA, 11.7 mg NaTaC
Protocol: Briefly, an aliquot of 900 μL dog plasma sample was mixed with 10 μL internal standard (Goserelin; 25 ng/mL) and 300 μL 4% H3PO4 acidified water into 1.5 mL Eppendorf tubes. The plasma sample was then extracted using Oasis™ WAX solid-phase extraction cartridges.
The drug plasma concentration was evaluated using an LC-MS/MS method as described in Example 11.

[4] = tested on: porcine buccal mucosa; assay: ex vivo effect of hypobaric pressure on diffusion of marker molecule in porcine buccal mucosa; type: in vitro ADME; details: 54 μg Cy5, 2.1 mg C10, 1.2 mg PVA, pressure set to 30 kPa, 37° C., 3 h
Protocol: The device could continuously monitor and control the pressure inside the patch to a constant value, e.g., 30 kPa. For the application, the buccal tissue was prepared as described above and placed in a 6-well plate that is filled with DMEM buffer. […] Subsequently, the pressure was set by the reduction valve to 30 kPa and left in the 37° C. incubators for 3 h. Afterwards, the vacuum pump was turned off and the mucosal suction patches were detached. The tissue specimen was processed as described before for fluorescent imaging. The intensity of each image was converted to the equivalent of 150 ms exposure time to allow the comparability. When plotting the fluorescent intensity-distance profile, the absolute intensity was utilized instead of the normalized in order to compare the pressure-related permeation enhancing effects among different samples.

[5] = tested on: porcine buccal mucosa; assay: ex vivo permeation of surrogates through porcine buccal mucosa with mucosal suction patch; type: in vitro ADME; details: patch with surrogate, 1.2 mg PVA, 5.7 mg NaTaC, 3 h
Protocol: Specimen were permeabilized with a 0.5% Trition™ X100 PBS buffered solution for 15 min, washed for 3 min in PBS and incubated with a PBS buffered solution of 0.1% iFluor™ 488-conjugated phalloidin (F-Actin stain) and 0.1% Hoechst 33342 (Nucleous stain) for 30 min.
Fluorescence images were obtained with a widefield microscope (Leica DMI 6000) at 20× magnification in the tile scan mode and merged to a single image. The specimen was excited at 590-650 nm and the emission filtered from 662-738 nm. To evaluate the penetration depth of the surrogate, images were processed as grayscale with Fiji-ImageJ™ software. Line profiles of the grayscale intensity were obtained by drawing multiple straight lines vertical to the surface of the mucosa lining. The obtained intensity-distance profiles were transferred to Microsoft Excel™ and MatLab™ for further processing. The autofluorescence was first corrected by subtracting the averaged baseline intensity multiplied by 3 times its standard deviation obtained from a lower laying region of the tissue. The maximum intensity was set to 100% and the corresponding distance value was set to zero to normalize the drug distribution profile. […]
The molecular weight range of administrable drugs was evaluated ex-vivo on porcine buccal mucosa tissue by applying drug surrogates with different molecular weights. […]

## NC(=O)CC[C@@H]1NC(=O)[C@H](Cc2ccccc2)NC(=O)[C@H](Cc2ccc(O)cc2)NC(=O)CCSSC[C@@H](C(=O)N2CCC[C@H]2C(=O)N[C@H](CCCN=C(N)N)C(=O)NCC(N)=O)NC(=O)[C@H](CC(N)=O)NC1=O [desmopressin]
[1]
  bioavailability higher than commercial tablets: 35%

## octreotride
[2]
  oral bioavailability: 0.5-1%

## CC[C@H](C)[C@H](NC(=O)[C@H](Cc1ccccc1)NC(=O)[C@H](CCC(=O)O)NC(=O)[C@H](CCCCNC(=O)COCCOCCNC(=O)COCCOCCNC(=O)CC[C@H](NC(=O)CCCCCCCCCCCCCCCCC(=O)O)C(=O)O)NC(=O)[C@H](C)NC(=O)[C@H](C)NC(=O)[C@H](CCC(N)=O)NC(=O)CNC(=O)[C@H](CCC(=O)O)NC(=O)[C@H](CC(C)C)NC(=O)[C@H](Cc1ccc(O)cc1)NC(=O)[C@H](CO)NC(=O)[C@H](CO)NC(=O)[C@@H](NC(=O)[C@H](CC(=O)O)NC(=O)[C@H](CO)NC(=O)[C@@H](NC(=O)[C@H](Cc1ccccc1)NC(=O)[C@@H](NC(=O)CNC(=O)[C@H](CCC(=O)O)NC(=O)C(C)(C)NC(=O)[C@@H](N)Cc1cnc[nH]1)[C@@H](C)O)[C@@H](C)O)C(C)C)C(=O)N[C@@H](C)C(=O)N[C@@H](Cc1c[nH]c2ccccc12)C(=O)N[C@@H](CC(C)C)C(=O)N[C@H](C(=O)N[C@@H](CCCNC(=N)N)C(=O)NCC(=O)N[C@@H](CCCNC(=N)N)C(=O)NCC(=O)O)C(C)C [semaglutide]
[3]
  plasma concentrations: therapeutic relevant plasma concentrations

## Cy5
[4]
  effect of negative pressure on drug permeation: effectively enhanced the drug permeation

B1: Alexa647-Ovalbumin: Alexa647 dye linked to ovalbumin (≈5.5 nm, 45 kDa) (conjugate, UniProt P01012 2-386, looked up)
Ovalbumin: GSIGAASMEFCFDVFKELKVHHANENIFYCPIAIMSALAMVYLGAKDSTRTQINKVVRFDKLPGFGDSIEAQCGTSVNVHSSLRDILNQITKPNDVYSFSLASRLYAEERYPILPEYLQCVKELYRGGLEPINFQTAADQARELINSWVESQTNGIIRNVLQPSSVDSQTAMVLVNAIVFKGLWEKAFKDEDTQAMPFRVTEQESKPVQMMYQIGLFRVASMASEKMKILELPFASGTMSMLVLLPDEVSGLEQLESIINFEKLTEWTSSNVMEERKIKVYLPRMKMEEKYNLTSVLMAMGITDVFSSSANLSGISSAESLKISQAVHAAHAEINEAGREVVGSAEAGVDAASVSEEFRADHPFLFCIKHIATNAVLFFGRCVSP
modifications: Alexa647 dye
[5]
  crossing of the mucosal epithelium: reach deep inside
